The results in this text go back to paper PMC3196276 (2011).

Assay [1] has as its system U25C (3WJ site mutant) (RNA, riboswitch) GGAGAGUAGAUGAUUCGCGUUAAGCGUGUGUGAAUGGGAUGUCGUCACACAACGAAGCGAGAGCGCGGUGAAUCAUUGCAUCCGCUCCA
Put plainly: ITC. The note with it: 6 mM MgCl2, 100 mM NaCl, 10 mM KCl; 10 mM HEPES pH 8.0, 1 mM DTT, 25 °C.

For assay [2], the system named is U7C (PK site mutant) (RNA, riboswitch) GGAGAGCAGAUGAUUCGCGUUAAGUGUGUGUGAAUGGGAUGUCGUCACACAACGAAGCGAGAGCGCGGUGAAUCAUUGCAUCCGCUCCA
Nature of the assay: ITC. The note with it: 6 mM MgCl2, 100 mM NaCl, 10 mM KCl; 10 mM HEPES pH 8.0, 1 mM DTT, 25 °C.

In assay [3] the test system is Smu wild type (wt) THF riboswitch aptamer, crystallization sequence (RNA, riboswitch) GGAGAGUAGAUGAUUCGCGUUAAGUGUGUGUGAAUGGGAUGUCGUCACACAACGAAGCGAGAGCGCGGUGAAUCAUUGCAUCCGCUCCA
The note with it: apparent; ligand not given, THF from context.

`Nc1nc2c(c(=O)[nH]1)N(C=O)[C@@H](CNc1ccc(C(=O)N[C@@H](CCC(=O)O)C(=O)O)cc1)CN2`: the values for the KD in assay [1] and in assay [2] were 18 ± 1 µM and 23 ± 2 µM, respectively.
With `Nc1nc2c(c(=O)[nH]1)N[C@@H](CNc1ccc(C(=O)N[C@@H](CCC(=O)O)C(=O)O)cc1)CN2`, in assay [3], the “KD,app” value worked out at 18 ± 1 µM.
